From patent US20240279221A1, “HETEROCYCLIC COMPOUNDS AND METHODS OF USE” (Schrödinger, Inc., priority 2021, published 2024)

These molecules were tested against SOS1:KRAS (G12C) interaction (Homo sapiens (Human), UniProt Q07889) (assay: SOS1-KRas(G12C) FRET Assay). Conditions: 0.5 nM His10-SOS1 (res. 564-1049), 2.5 nM GST-KRAS (res. 1-169, G12C); read-out: SOS-KRas(G12C) FRET IC50.
Type: binding
Method: Inhibition of the SOS1:KRAS interaction was measured using purified GST-tagged KRAS (res. 1-169, G12C, purified based on Hillig, et al., Proc Natl Acad Sci USA (2019); 116(7):2551-2560) and recombinant His10-SOS1 (res. 564-1049; purified based on Hillig, et al.). The final assay was performed at 20 uL with 0.5 nM SOS1 protein and 2.5 nM KRAS protein in a buffer of PBS, 0.1% BSA, 5 mM MgCl2, 0.0025% Igepal, 100 mM KF, 5 mM DTT in a white 384 square well OptiPlate (PerkinElmer, Cat. 6007290). A 2× KRAS working solution was prepared in an assay buffer containing 5 nM GST-KRAS G12C and 2 nM anti-GST-Eu(K) (Cisbio, Cat. 61GSTKLA) and pre-incubated for 15 minutes at 25° C. Compounds were serially diluted in 100% DMSO from 2 mM (positive control, compound I-13, PCT Publ. No. WO2018/115380) or 20 mM and then diluted 1:20 in assay buffer before incubation with a solution of SOS1 protein mixed 1:5 with anti-6His-XL665 FRET donor (Cisbio, Cat. 61HISXL) for 15 minutes at 25° C. before addition of 2× KRAS working solution. The final DMSO concentration is 0.5%. Plates were incubated at RT for 2 hrs before the FRET signal was measured using Envision at emission 665 nm and 615 nm. FRET signal was converted to percentage of protein-protein interaction using the following equation:
[formula] • C: signal with compound treatment • P: signal for positive control (DMSO) • N: signal for negative control (no SOS1 added) • IC50 and Hill coefficients were obtained using Graph Pad Prism (Graph Pad software, Inc, USA) with non-linear regression analysis.

Chain of SOS1:KRAS (G12C) interaction (Q07889 564-1049, stated change not applied): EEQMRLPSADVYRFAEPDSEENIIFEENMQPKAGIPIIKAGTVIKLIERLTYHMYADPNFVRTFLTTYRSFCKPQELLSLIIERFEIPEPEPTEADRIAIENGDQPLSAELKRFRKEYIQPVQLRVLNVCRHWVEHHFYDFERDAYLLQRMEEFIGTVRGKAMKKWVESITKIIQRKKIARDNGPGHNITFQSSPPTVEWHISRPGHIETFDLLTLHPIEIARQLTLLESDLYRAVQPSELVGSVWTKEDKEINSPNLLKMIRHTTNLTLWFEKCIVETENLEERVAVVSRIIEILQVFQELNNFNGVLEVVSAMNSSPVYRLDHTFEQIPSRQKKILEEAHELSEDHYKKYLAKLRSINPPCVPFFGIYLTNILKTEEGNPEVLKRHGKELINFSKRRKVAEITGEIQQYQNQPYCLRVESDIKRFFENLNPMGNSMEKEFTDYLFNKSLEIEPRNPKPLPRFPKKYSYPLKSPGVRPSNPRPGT

| IC50 | Compound |
| --- | --- |
| 30.4 nM | COc1c(=O)n(C2CCOCC2)cc2c(N[C@H](C)c3cccc(C(C)(F)F)c3F)nn(C)c(=O)c12 [Example 37, (R)-4-((1-(3-(1,1-difluoroethyl)-2-fluorophenyl)ethyl)amino)-8-methoxy-2-methyl-6-(tetrahydro-2H-pyran-4-yl)-2,6-dihydropyrido[3,4-d]pyridazine-1,7-dione] |
| 1310 nM | CCn1nc(N[C@H](C)c2cccc(C(F)(F)F)c2C)c2cn(C3CC3)c(=O)cc2c1=O [Example 8, (R)-6-cyclopropyl-2-ethyl-4-((1-(2-methyl-3-(trifluoromethyl)phenyl)ethyl)amino)-2,6-dihydropyrido[3,4-d]pyridazine-1,7-dione] |
| 424 nM | C[C@@H](Nc1nn(C)c(=O)c2cc(=O)n([C@]3(C(F)(F)F)CCOC3)cc12)c1cccc(C(F)F)c1F (single isomer, unassigned) [Example 165] |
| 125 nM | C[C@@H](Nc1nn(C)c(=O)c2cc(=O)n([C@H]3CCC(F)(F)C3)cc12)c1cccc(C(F)F)c1F (single isomer, unassigned) [Example 121] |
| 35.3 nM | C[C@@H](Nc1nn(C)c(=O)c2c(OCCN(C)C)c(=O)n(C3(C(F)F)CC3)cc12)c1cccc(C(F)F)c1F [Example 86, (R)-4-((1-(3-(difluoromethyl)-2-fluorophenyl)ethyl)amino)-6-(1-(difluoromethyl)cyclopropyl)-8-(2-(dimethylamino)ethoxy)-2-methyl-2,6-dihydropyrido[3,4-d]pyridazine-1,7-dione] |
| 382 nM | COc1c(=O)n([C@]2(C(F)(F)F)CCOC2)cc2c(N[C@H](C)c3cccc(C(F)F)c3F)nn(C)c(=O)c12 (single isomer, unassigned) [Example 158] |
| > 10000 nM | C[C@H](Nc1nn(C)c(=O)c2cc(=O)n(C3CC3)cc12)c1cccc(C(F)(F)C(=O)N(C)C)c1F [Example 105, (S)-2-(3-(1-((6-cyclopropyl-2-methyl-1,7-dioxo-1,2,6,7-tetrahydropyrido[3,4-d]pyridazin-4-yl)amino)ethyl)-2-fluorophenyl)-2,2-difluoro-N,N-dimethylacetamide] |
| > 10000 nM | CNC(=O)C(F)(F)c1cccc([C@H](C)Nc2nn(C)c(=O)c3cc(=O)n(C4CC4)cc23)c1F [Example 108, (S)-2-(3-(1-((6-cyclopropyl-2-methyl-1,7-dioxo-1,2,6,7-tetrahydropyrido[3,4-d]pyridazin-4-yl)amino)ethyl)-2-fluorophenyl)-2,2-difluoro-N-methylacetamide] |
| 24.9 nM | COCC(F)(F)c1cccc([C@@H](C)Nc2nn(C)c(=O)c3cc(=O)n(C4(C(F)F)CC4)cc23)c1F [Example 161, 4-[[(1R)-1-[3-(1,1-difluoro-2-methoxy-ethyl)-2-fluoro-phenyl]ethyl]amino]-6-[1-(difluoromethyl)cyclopropyl]-2-methyl-pyrido[3,4-d]pyridazine-1,7-dione] |
| 83.5 nM | C[C@@H](Nc1nn(C)c(=O)c2c(OC3COC3)c(=O)n(C3(C(F)F)CC3)cc12)c1cccc(C(F)F)c1F [Example 88, (R)-4-((1-(3-(difluoromethyl)-2-fluorophenyl)ethyl)amino)-6-(1-(difluoromethyl)cyclopropyl)-2-methyl-8-(oxetan-3-yloxy)pyrido[3,4-d]pyridazine-1,7(2H,6H)-dione] |
| 120 nM | COC(C)(C)C(F)(F)c1cccc([C@@H](C)Nc2nn(C)c(=O)c3cc(=O)n(C4CC4)cc23)c1F [Example 109, (R)-6-cyclopropyl-4-((1-(3-(1,1-difluoro-2-methoxy-2-methylpropyl)-2-fluorophenyl)ethyl)amino)-2-methyl-2,6-dihydropyrido[3,4-d]pyridazine-1,7-dione] |
| 91.2 nM | C[C@@H](Nc1nn(C)c(=O)c2cc(=O)n([C@H]3C[C@@H]3C(F)(F)F)cc12)c1cccc(C(F)F)c1F (single isomer, unassigned) [Example 137] |
| 1950 nM | Cc1c([C@@H](C)Nc2nn(C)c(=O)c3cc(=O)n(C4CCN(C)CC4)cc23)cccc1C(F)(F)F [Example 23, (R)-2-methyl-4-((1-(2-methyl-3-(trifluoromethyl)phenyl)ethyl)amino)-6-(1-methylpiperidin-4-yl)-2,6-dihydropyrido[3,4-d]pyridazine-1,7-dione] |
| > 10000 nM | Cc1cnc(C(F)(F)c2cccc([C@H](C)Nc3nn(C)c(=O)c4cc(=O)n(C5(C(F)F)CC5)cc34)c2F)cn1 [Example 177, (S)-4-((1-(3-(difluoro(5-methylpyrazin-2-yl)methyl)-2-fluorophenyl)ethyl)amino)-6-(1-(difluoromethyl)cyclopropyl)-2-methyl-2,6-dihydropyrido[3,4-d]pyridazine-1,7-dione] |

Continued, molecule first:

| Compound | IC50 |
| --- | --- |
| C[C@@H](Nc1nn(C)c(=O)c2cc(=O)n([C@]3(C(F)F)CCOC3)cc12)c1cccc(C(F)F)c1F (single isomer, unassigned) [Example 120] | 19.9 nM |
| C[C@H](Nc1nn(C)c(=O)c2cc(=O)n(C3CC3)cc12)c1cccc2sccc12 [Example 65, (S)-4-((1-(benzo[b]thiophen-4-yl)ethyl)amino)-6-cyclopropyl-2-methyl-2,6-dihydropyrido[3,4-d]pyridazine-1,7-dione] | > 100000 nM |
| Cc1c([C@@H](C)Nc2nn(C)c(=O)c3cc(=O)n(C45COC(C)(C4)C5)cc23)cccc1C(F)(F)F [Example 127, (R)-2-methyl-4-((1-(2-methyl-3-(trifluoromethyl)phenyl)ethyl)amino)-6-(1-methyl-2-oxabicyclo[2.1.1]hexan-4-yl)-2,6-dihydropyrido[3,4-d]pyridazine-1,7-dione] | 90 nM |
| C[C@@H](Nc1nn(C)c(=O)c2cc(=O)n(C3(C(F)F)CC3)cc12)c1cccc2c(F)coc12 [Example 163, (R)-6-(1-(difluoromethyl)cyclopropyl)-4-((1-(3-fluorobenzofuran-7-yl)ethyl)amino)-2-methyl-2,6-dihydropyrido[3,4-d]pyridazine-1,7-dione] | 75.6 nM |
| C[C@@H](Nc1nn(C)c(=O)c2cc(=O)n([C@@]3(C(F)(F)F)CCOC3)cc12)c1cccc2c(F)coc12 (single isomer, unassigned) [Example 166] | 34.8 nM |
| C[C@@H](Nc1nn(C)c(=O)c2cc(=O)n(C3(C)CN(C(=O)C4CC4)C3)cc12)c1cccc(C(F)F)c1F [Example 150, (R)-6-(1-(cyclopropanecarbonyl)-3-methylazetidin-3-yl)-4-((1-(3-(difluoromethyl)-2-fluorophenyl)ethyl)amino)-2-methyl-2,6-dihydropyrido[3,4-d]pyridazine-1,7-dione] | 5.5 nM |
| C[C@@H](Nc1nn(C)c(=O)c2cc(=O)n(C3(CF)CC3)cc12)c1cccc(C(F)F)c1F [Example 125, (R)-4-((1-(3-(difluoromethyl)-2-fluorophenyl)ethyl)amino)-6-(1-(fluoromethyl)cyclopropyl)-2-methylpyrido[3,4-d]pyridazine-1,7(2H,6H)-dione] | 54.3 nM |
| Cc1c([C@@H](C)Nc2nn(C)c(=O)c3cc(=O)n([C@@H]4C[C@H]4c4cncc(F)c4)cc23)cccc1C(F)(F)F (single isomer, unassigned) [Example 92] | 567 nM |
| C[C@@H](Nc1nn(C)c(=O)c2cc(=O)n(C3(CN4CC(F)C4)CC3)cc12)c1cccc(C(F)F)c1F [Example 124, (R)-4-((1-(3-(difluoromethyl)-2-fluorophenyl)ethyl)amino)-6-(1-((3-fluoroazetidin-1-yl)methyl)cyclopropyl)-2-methylpyrido[3,4-d]pyridazine-1,7(2H,6H)-dione] | 886 nM |
| C[C@@H](Nc1nn(C)c(=O)c2cc(=O)n([C@]3(C(F)(F)F)CCOC3)cc12)c1cccc2c(F)coc12 (single isomer, unassigned) [Example 167] | 607 nM |
| C[C@@H](Nc1nn(C)c(=O)c2cc(=O)n([C@H]3CC34CCC(F)(F)CC4)cc12)c1cccc(C(F)F)c1F (single isomer, unassigned) [Example 130] | 82.6 nM |
| C[C@@H](Nc1nn(C)c(=O)c2cc(=O)n(C3(CO)CC3)cc12)c1cccc(C(F)F)c1F [Example 123, (R)-4-((1-(3-(difluoromethyl)-2-fluorophenyl)ethyl)amino)-6-(1-(hydroxymethyl)cyclopropyl)-2-methylpyrido[3,4-d]pyridazine-1,7(2H,6H)-dione] | 366 nM |
| C[C@@H](Nc1nn(C)c(=O)c2cc(=O)n([C@@]3(C(F)F)CCOC3)cc12)c1cccc(C(F)F)c1F (single isomer, unassigned) [Example 119] | 411 nM |
| CC(=O)N1CC[C@@](n2cc3c(N[C@H](C)c4cccc5c4OCC5(F)F)nn(C)c(=O)c3cc2=O)(C(F)(F)F)C1 (single isomer, unassigned) [Example 170] | 6.5 nM |
| C[C@@H](Nc1nn(C)c(=O)c2cc(=O)n([C@@]3(C(F)(F)F)CCN(C)C3)cc12)c1cccc(C(F)F)c1F (single isomer, unassigned) [Example 97] | 65.6 nM |
